Laboratory results as given in patent US7858644B2, “EP4 receptor antagonists” (Asterand UK Limited, priority 2003, dated 2010).

How the values were obtained:
human EP4 receptor = molecular target: T1, human EP4 receptor (Homo sapiens, UniProt P35408); assay: Binding ability to human EP4 receptor ([3H]PGE2 displacement); settings: read-out: pKi EP4 (converted)
T1 construct: expressed in transfected cells
Description: (§1) Membranes were prepared from cells stably transfected with human EP receptor cDNA. In brief, cells were cultured to confluency, scraped from culture flasks, and centrifuged (800 g, 8 minutes, 4° C.). Cells were twice washed in ice cold homogenisation buffer containing 10 mMTris-HCl, 1 mM EDTA. 2Na, 250 mM sucrose, 1 mM PMSF, 0.3 mM indomethacin, pH 7.4, homogenised and re-centrifuged as before. The supernatant was stored on ice and pellets re-homogenised and re-spun. Supernatants were pooled and centrifuged at 40000 g, 10 minutes, 4° C. Resultant membrane pellets were stored at −80° C. until use.
(§2) Incubations were performed at suitable temperatures and for suitable times to allow equilibrium to be reached. Non-specific binding was determined in the presence of 10 uM PGE2. Bound and free radiolabel was separated by vacuum manifold filtration using appropriate wash buffers, and bound radiolabel was determined by scintillation counting. Constituents of each of the buffers are included in table 1 below.
(§3) This approach follows that set out in Kenakin, T. P., Pharmacologic analysis of drug receptor interaction. Raven Press, New York, 2nd edition.

human EP3 receptor = molecular target: T2, human EP3 receptor (Homo sapiens, UniProt P43115); assay: Binding ability to human EP3 receptor ([3H]PGE2 displacement); settings: membranes from cells stably transfected with human EP receptor cDNA; [3H]PGE2 2.5 nM; Cheng-Prusoff from IC50; read-out: pKi EP3 (converted)
T2 construct: expressed in transfected cells
T2 sequence (P43115 1-390): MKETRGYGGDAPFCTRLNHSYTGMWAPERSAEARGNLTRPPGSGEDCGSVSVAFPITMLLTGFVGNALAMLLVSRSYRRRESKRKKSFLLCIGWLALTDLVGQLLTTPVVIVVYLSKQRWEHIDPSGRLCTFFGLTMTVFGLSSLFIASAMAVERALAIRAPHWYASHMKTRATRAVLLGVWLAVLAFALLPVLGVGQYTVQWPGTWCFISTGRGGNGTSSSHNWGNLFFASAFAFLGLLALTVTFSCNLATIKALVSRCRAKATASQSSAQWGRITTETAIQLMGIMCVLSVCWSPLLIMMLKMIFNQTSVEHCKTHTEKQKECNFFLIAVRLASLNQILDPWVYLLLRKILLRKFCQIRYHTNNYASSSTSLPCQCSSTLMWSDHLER
Description: as §1
as §2, with “For assay, membranes expressing human EP4, EP3, EP2 or EP1 receptors were incubated in Millipore (MHVBN45) plates containing assay buffer, radiolabelled [^3H]PGE2 and 0.1 to 10 000 nM concentrations of compounds. Incubations” for “Incubations”
as §3

human EP2 receptor = molecular target: T3, human EP2 receptor (Homo sapiens, UniProt P43116); assay: Binding ability to human EP2 receptor ([3H]PGE2 displacement); settings: read-out: pKi EP2 (converted)
T3 construct: expressed in transfected cells
Description: as §1
as §2, with “For assay, membranes expressing human EP4, EP3, EP2 or EP1 receptors were incubated in Millipore (MHVBN45) plates containing assay buffer, radiolabelled [^3H]PGE2 and 0.1 to 10 000 nM concentrations of compounds. Incubations” for “Incubations”
as §3

T1 sequence (P35408 whole entry): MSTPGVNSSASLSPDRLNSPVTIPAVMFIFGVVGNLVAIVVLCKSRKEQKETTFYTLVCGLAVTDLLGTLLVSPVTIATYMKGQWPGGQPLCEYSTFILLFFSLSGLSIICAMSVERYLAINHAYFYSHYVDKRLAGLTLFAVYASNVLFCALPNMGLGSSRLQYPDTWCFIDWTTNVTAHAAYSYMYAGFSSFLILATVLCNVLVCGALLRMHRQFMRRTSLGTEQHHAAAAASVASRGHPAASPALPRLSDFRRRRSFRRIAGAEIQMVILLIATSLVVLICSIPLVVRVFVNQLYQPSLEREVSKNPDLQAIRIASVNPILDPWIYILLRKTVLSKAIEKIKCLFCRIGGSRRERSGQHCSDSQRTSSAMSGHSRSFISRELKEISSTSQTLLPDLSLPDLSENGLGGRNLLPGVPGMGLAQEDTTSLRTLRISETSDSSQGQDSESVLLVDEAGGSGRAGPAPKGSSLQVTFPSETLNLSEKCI
T3 sequence (P43116 whole entry): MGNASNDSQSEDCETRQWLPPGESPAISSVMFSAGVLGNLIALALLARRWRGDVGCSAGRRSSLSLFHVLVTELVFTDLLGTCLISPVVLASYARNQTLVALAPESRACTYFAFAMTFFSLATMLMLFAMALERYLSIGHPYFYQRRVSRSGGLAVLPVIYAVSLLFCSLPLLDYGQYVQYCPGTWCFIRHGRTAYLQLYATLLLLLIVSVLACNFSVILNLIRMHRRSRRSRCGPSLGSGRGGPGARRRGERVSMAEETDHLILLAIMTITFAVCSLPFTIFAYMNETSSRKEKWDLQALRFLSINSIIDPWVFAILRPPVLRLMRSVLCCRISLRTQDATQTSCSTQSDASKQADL

Ki (human EP4 receptor) [µM]	Ki (human EP3 receptor) [µM]	Ki (human EP2 receptor) [µM]	SMILES
< 0.0316	> 10	> 10	Cc1ccccc1S(=O)(=O)NC(=O)c1cc(CN(C)c2ccc(-c3ccc(OC(F)F)cc3)cc2)c(C)o1 [Compound 177, N-(4-{[(4′-Difluoromethoxy-biphenyl-4-yl)-methyl-amino]-methyl}-5-methyl-furan-2-carbonyl)-2-methyl-benzenesulfonamide]
< 3.16	> 10	> 10	CSc1ccc(-c2ccc(OCc3cc(C(=O)O)oc3C)cc2)cc1 [Compound 111, 5-Methyl-4-(4′-methylsulphanyl-biphenyl-4-yloxymethyl)-furan-2-carboxylic acid]
< 3.16	> 10	> 10	N#Cc1ccc(-c2ccc(OCc3cc(C(=O)O)oc3C(F)(F)F)cc2)cc1 [Compound 93, 4-(4′-Cyano-biphenyl-4-yloxymethyl)-5-trifluoromethyl-furan-2-carboxylic acid]
< 1	> 10	> 10	CCCC(=O)NS(=O)(=O)c1cc(COc2ccc(-c3ccccc3)cc2)c(C)o1 [Compound 61, 4-(Biphenyl-4-yloxymethyl)-5-methyl-furan-2-sulphonic acid butyryl-amide]
< 3.16	> 10	> 10	N#Cc1ccc(-c2ccc(OCc3coc(C(=O)O)c3)cc2)cc1 [Compound 79, 4-(4′-Cyano-biphenyl-4-yloxymethyl)-furan-2-carboxylic acid]
< 0.316	> 10	> 10	CCOc1ccc(-c2ccc(OCc3cc(C(=O)O)oc3C)cc2)cc1 [Compound 98, 4-(4′-Ethoxy-biphenyl-4-yloxymethyl)-5-methyl-furan-2-carboxylic acid]
< 0.316	> 10	> 10	COc1ccc(-c2ccc(OCc3coc(C(=O)O)c3)cc2)cc1 [Compound 80, 4-(4′-Methoxy-biphenyl-4-yloxymethyl)-furan-2-carboxylic acid]
< 0.1	> 10	> 10	Cc1oc(S(=O)(=O)NC(=O)Cc2ccccc2)cc1COc1ccc(-c2ccccc2)cc1 [Compound 62, 4-(Biphenyl-4-yloxymethyl)-5-methyl-furan-2-sulphonic acid phenylacetyl-amide]
< 3.16	> 10	> 10	CC(=O)c1cccc(-c2ccc(OCc3cc(C(=O)O)oc3C)cc2)c1 [Compound 117, 4-(3′-Acetyl-biphenyl-4-yloxymethyl)-5-methyl-furan-2-carboxylic acid]
< 1	> 3.16	> 3.16	Cc1oc(C(=O)NS(=O)(=O)c2ccccc2)cc1CSc1ccc(-c2ccc(OC(F)F)cc2)cc1 [Compound 155, N-[4-(4′-Difluoromethoxy-biphenyl-4-ylsulphanylmethyl)-5-methyl-furan-2-carbonyl]-benzenesulphonamide]
< 0.1	> 10	> 10	Cc1oc(/C=C/C(=O)O)cc1COc1ccc(-c2ccccc2)cc1 [Compound 42, 3-[4-(Biphenyl-4-yloxymethyl)-5-methyl-furan-2-yl]-acrylic acid]
< 10	> 10	> 10	Cc1ccccc1S(=O)(=O)NC(=O)c1cc(CS(=O)(=O)c2ccc(-c3ccc(OC(F)F)cc3)cc2)c(C)o1 [Compound 156a, N-[4-(4′-Difluoromethoxy-biphenyl-4-sulfonylmethyl)-5-methyl-furan-2-carbonyl]-2-methyl-benzenesulfonamide]
< 10	> 10	> 3.16	O=C(O)c1cc(COc2ccc3oc4ccccc4c3c2)co1 [Compound 78, 4-(Dibenzofuran-2-yloxymethyl)-furan-2-carboxylic acid]
< 3.16	> 10	> 10	Cc1oc(C(=O)O)cc1CNc1ccc(-c2ccccc2)cc1 [Compound 160, 4-(Biphenyl-4-ylaminomethyl)-5-methyl-furan-2-carboxylic acid]
< 3.16	> 10	> 10	CC(C)c1oc(C(=O)O)cc1COc1ccc2c(c1)oc1ccccc12 [Compound 87, 4-(Dibenzofuran-3-yloxymethyl)-5-isopropyl-furan-2-carboxylic acid]
< 0.0316	> 1	> 3.16	Cc1ccccc1S(=O)(=O)NC(=O)c1cc(CSc2ccc(-c3ccc(OC(F)F)cc3)cc2)c(C)o1 [Compound 154, N-[4-(4′-Difluoromethoxy-biphenyl-4-ylsulphanylmethyl)-5-methyl-furan-2-carbonyl]-2-methyl-benzenesulphonamide]
< 0.1	> 10	> 10	COc1ccc(-c2ccc(OCc3cc(/C=C/C(=O)O)oc3C)cc2)cc1 [Compound 43, 3-[4-(4′-Methoxy-biphenyl-4-yloxymethyl)-5-methyl-furan-2-yl]-acrylic acid]
< 0.316	> 10	> 10	Cc1oc(C(=O)O)cc1CNc1ccc(-c2ccc(OC(F)F)cc2)cc1 [Compound 171, 4-(4′-Difluoromethoxy-biphenyl-4-ylaminomethyl)-5-methyl-furan-2-carboxylic acid]
< 3.16	> 10	> 10	O=C(O)c1cc(COc2cccc(-c3ccccc3)c2)c(C(F)(F)F)o1 [Compound 91, 4-(Biphenyl-3-yloxymethyl)-5-trifluoromethyl-furan-2-carboxylic acid]
< 0.1	> 10	> 10	Cc1oc(S(=O)(=O)NC(=O)c2ccccc2)cc1COc1ccc(-c2ccccc2)cc1 [Compound 46, 4-(Biphenyl-4-yloxymethyl)-5-methyl-furan-2-sulfonic acid benzoylamide]
< 10	> 10	> 10	Cc1oc(C(=O)O)cc1COc1ccc(-c2ncccn2)cc1 [Compound 137, 5-Methyl-4-(4-pyrimidin-2-yl-phenoxymethyl)-furan-2-carboxylic acid]
< 0.01	> 10	> 10	Cc1noc(C)c1S(=O)(=O)NC(=O)c1cc(CNc2ccc(-c3ccc(OC(F)F)cc3)cc2)c(C)o1 [Compound 174, 3,5-Dimethyl-isoxazole-4-sulphonic acid {4-[(4′-difluoromethoxy-biphenyl-4-ylamino)-methyl]-5-methyl-furan-2-carbonyl}-amide]
< 1	> 10	> 10	Cc1oc(S(=O)(=O)NC(=O)c2ccncc2)cc1COc1ccc(-c2ccccc2)cc1 [Compound 67, 4-(Biphenyl-4-yloxymethyl)-5-methyl-furan-2-sulphonic acid (pyridine-4-carbonyl)-amide]
< 0.316	> 10	> 10	COc1ccc(-c2ccc(NC(=O)c3cc(C(=O)NS(=O)(=O)c4ccccc4)oc3C)cc2)cc1 [Compound 25, 5-Benzenesulfonylaminocarbonyl-2-methyl-furan-3-carboxylic acid (4′-methoxy-biphenyl-4-yl)-amide]
< 0.1	> 10	> 10	Cc1oc(S(=O)(=O)NC(=O)c2cccs2)cc1COc1ccc(-c2ccccc2)cc1 [Compound 64, 4-(Biphenyl-4-yloxymethyl)-5-methyl-furan-2-sulphonic acid (thiophene-2-carbonyl)-amide]
< 1	> 10	> 3.16	Cc1oc(C(=O)O)cc1COc1ccc(-c2ccccc2Cl)cc1 [Compound 99, 4-(2′-Chloro-biphenyl-4-yloxymethyl)-5-methyl-furan-2-carboxylic acid]
< 10	> 10	> 10	COc1ccc(-c2ccc(OCc3cc(C(=O)NS(=O)(=O)c4ccccc4)oc3C)cc2)[n+]([O-])c1 [Compound 135, N-{4-[4-(5-Methoxy-1-oxy-pyridin-2-yl)-phenoxymethyl]-5-methyl-furan-2-carbonyl}-benzenesulphonamide]
< 3.16	> 10	> 10	Cc1oc(C(=O)O)cc1CCOc1ccc2c(c1)oc1ccccc12 [Compound 74, 4-[2-(Dibenzofuran-3-yloxy)-ethyl]-5-methyl-furan-2-carboxylic acid]
